The text below walks through data of US4482722A, “Ester of metronidazole with N,N-dimethylglycine and acid addition salt thereof” (A/S Dumex (Dumex Ltd.), priority 1982, dated 1984).

For series [1] the following is noted: cited from earlier work.
For series [2] the following is noted: after parenteral administration; cited from earlier work.
The conditions of series [3]: compound itself (uncleaved ester); cited from earlier work.
Series [4] is described as follows: Solubility in water / aqueous solution. It is filed as physicochemical.
Series [5] is described as follows: Hydrolysis to metronidazole in human plasma (in vitro). The series is classed as in vitro ADME.
Series [6] in a line: Hydrolysis to metronidazole in 0.05M phosphate buffer pH 7.4. To be noted: pH 7.4, 37° C, read-out: t1/2 in buffer. The series is classed as physicochemical.
Series [7] in a line: Intravenous cross-over study in two beagle dogs, plasma concentrations of ester, metronidazole and metabolites. It is filed as in vivo. The source says: (§1) To test the assumption that the N,N-dimethylglycine ester would be a suitable water-soluble prodrug of metronidazole for parenteral administration, metronidazole and its N,N-dimethylglycine ester were given intravenously to two beagle dogs in a cross-over study.

A short description of series [8]: Effect of temperature on rate of hydrolysis in acetate buffer pH 4.4 (Arrhenius plot). It is filed as physicochemical. The method, then: The effect of temperature on the rate of hydrolysis of metronidazole N,N-dimethylglycinate was studied in 0.05M acetate buffer of pH 4.4 over the temperature range 23°-50° C.
The results obtained are illustrated in FIG. 1 of the drawings. […] Based on the slope of said plot an activation energy of 17.7 kcal mole^-1 was calculated. Based on said Arrhenius type plot the stability of aqueous solutions of the ester may be predicted at various temperatures.

A short description of series [9]: Hydrolysis in 80% dog plasma in vitro. It is filed as in vitro ADME. As to conditions: 80% plasma, 37° C. The source says: As noted below the rapid and quantitative formation of metronidazole seen after administration of the ester indicate, however, that the rate of ester disappearance is solely or predominantly due to the hydrolytic conversion.
For series [10] the following is noted: published data; cited from earlier work.
The conditions of series [11]: compared with metronidazole at the same dosage level; cited from earlier work.
A short description of series [12]: pH of aqueous solutions of the hydrochloride. The series is classed as physicochemical. To be noted: 1-20% w/v aqueous solutions.
Series [13] is described as follows: Initial rate of formation of metronidazole and time to begin precipitation, calculated at 23° C (Table 2). The series is classed as physicochemical. Here is the method:
Since t10% for the ester is 73 h at 23° C., the results given in Table 2 indicate that the stability of aqueous solutions of the prodrug ester will only be limited by the potential precipitation of metronidazole formed upon hydrolysis in those cases where the concentration of the ester in aqueous solutions exceeds about 20%.

The nature of series [14]: Local tolerance after intravenous injection in dogs. The series is classed as in vivo, beagle dogs.
From the text: as §1

[15] abbreviates: 80% plasma, 80% human plasma, pH 7.4, 37° C, read-out: t1/2 in human plasma.

Values joined by “and” are separate entries in the source; they are usually repeats but may differ in a detail not shown here. Equal entries are not always repeated. Structures can show the parent of a compound that is named as a salt. Where two headings read alike, the source gives them in different places. Bounds are passed on as bounds.

On to `Cc1ncc([N+](=O)[O-])n1CCOC(=O)CCC(=O)O`, for which the “solubility in water (in words)” value in [1] (prior art esters) is listed as “has the required solubility in water”. Further, the “cleavage of the ester in blood serum (in words)” value in [2] is on record as “very slow”. Moreover, the “microbiological activity (in words)” value in [3] was “microbiologically inactive”.
The solubility is how much of the substance goes into solution per volume. With `Cc1ncc([N+](=O)[O-])n1CCO` [metronidazole], in series [4] (aqueous solution, pH>3, 25° C, read-out: solubility in aqueous solutions), the solubility was 10000 µg/mL and 58000 µM. Further, the “solubility in an aqueous solution” value in series [1] (background statement) is “about 100 mg/10 ml”. For the same compound, the “solubility augmented by solubilizers” value in series [1] (with gentisic acid (1:4) or with co-solvents (prior art)) is listed as 500-650 mg/10 ml.
As for `Cc1ncc([N+](=O)[O-])n1CCOC(=O)CN1CCN(C)CC1` [4-Methyl-1-piperazinoacetate], the half-life in [5] (setting [15]) worked out at 8.72 h; in series [6], 28.7 h.
Regarding `Cc1ncc([N+](=O)[O-])n1CC(=O)O` [2-Methyl-5-nitroimidazole-1-aceticacid], the “plasma concentration of metabolite (in words)” value in series [7] (dogs, i.v. ester hydrochloride (30 mg/kg metronidazole equivalents) or metronidazole (10 mg/kg)) is on record as “could not be detected in measurable concentrations”.
`Cc1ncc([N+](=O)[O-])n1CCOC(=O)CN` [Glycinate]: the half-life was determined as 0.683 h in series [5] (setting [15]) and 1.92 h in [6].
As for `Cc1ncc([N+](=O)[O-])n1CCOC(=O)CN(C)C` [metronidazole N,N-dimethylglycinate], the half-life is 0.2 h in series [5] (setting [15]); 0.15 to 0.2 h in [5] (human plasma or blood, in vitro, read-out: half-life of hydrolysis in human plasma or blood); 4.17 h in [6]; 0.417 h in [9]. Moreover, the “activation energy of hydrolysis” value in series [8] (0.05M acetate buffer pH 4.4, 23°-50° C, Arrhenius plot) stood at 17.7 kcal/mol. For the same compound, the “t10% (time in which 10% of the ester is degraded)” value in series [8] (pH 4.4, 4° C) turned out to be 576 h; in series [8] (pH 4.4, 15° C), 166 h; in series [8] (pH 4.4, 23° C), 73 h. For the same compound, the “half-life of disappearance of the ester in dogs” value in [7] (i.v. hydrochloride, 30 mg/kg metronidazole equivalents, one value per dog, 30 mg/kg) is “approximately 3 min and ~7 min”. For the same compound, the “hydrolysis in the dogs (in words)” value in series [7] (i.v., 30 mg/kg metronidazole equivalents) was “hydrolyzed rapidly”. For the same compound, the “pattern of metabolite formation (in words)” value in series [7] (i.v., dogs, compared with injection of metronidazole) is reported as “quite similar to that observed after injection of metronidazole”.
For the compound `Cc1ncc([N+](=O)[O-])n1CCOC(=O)CCN(C)C`, the half-life in series [5] (setting [15]) was determined as 0.767 h; in series [6], 0.867 h.
`CCCNCC(=O)OCCn1c([N+](=O)[O-])cnc1C` [N--Propylglycinate]: the half-life in [5] (setting [15]) was found to be 0.133 h; in series [6], 1.5 h.
On to `Cc1ncc([N+](=O)[O-])n1CCOP(=O)(O)O` [phosphate ester], for which the “rate of conversion to metronidazole in vivo (in words)” value in series [10] is “rather slow rate of conversion to metronidazole in vivo”. The “bioavailability of metronidazole to rats (in words)” value in series [11] was “significantly lower than that obtained with metronidazole at the same dosage level”.
For the compound `Cc1ncc([N+](=O)[O-])n1CCOC(=O)CN(C)C` [Metronidazole N,N-dimethylglycinate hydrochloride], in series [4] (water, 20° C, read-out: solubility in water), the solubility is > 500000 µg/mL and > 1.7e+06 µM. In series [12], the “pH of the 1-20% w/v solutions” value is recorded as 4.4-4.6. In addition, the “(d[M]/dt)i, apparent zero-order initial rate of formation of metronidazole” value in series [13] (50 mg ml^-1 hydrochloride) is 0.042 mg/mL/h; in [13] (100 mg ml^-1 hydrochloride) it was 0.084 mg/mL/h; in series [13] (200 mg ml^-1 hydrochloride) it was 0.168 mg/mL/h; in series [13] (300 mg ml^-1 hydrochloride) it was 0.252 mg/mL/h. Further, the “tpt, time for metronidazole to begin precipitation” value in series [13] (50 mg ml^-1 hydrochloride) is recorded as 238 h; in series [13] (100 mg ml^-1 hydrochloride), 119 h; in [13] (200 mg ml^-1 hydrochloride), 60 h; in series [13] (300 mg ml^-1 hydrochloride), 40 h. The “conversion to metronidazole (in words)” value in series [7] (i.v., dogs) was “rapidly and completely converted to metronidazole”. For the same compound, the “signs of pain or local toxicity” value in [14] is “No signs of pain or local toxicity”.
On to `Cc1ncc([N+](=O)[O-])n1CCOC(=O)CCCN(C)C`, for which the half-life was 5.57 h in series [5] (setting [15]) and 9.67 h in [6].
The corresponding values for `Cc1ncc([N+](=O)[O-])n1CCOC(=O)CCN` are 3.45 h and 5.25 h.
